What follows are compounds tested against T1, human HSL (Homo sapiens, UniProt Q05469) (assay: Human Hormone-Sensitive Lipase (HSL) enzyme inhibition assay (colorimetric, DMPT substrate)). Conditions: human full length HSL-His6, 2,3-dimercapto-1-propanol tributyrate substrate, 37° C. 20 minutes, absorbance at 405 nm; read-out: HSL hum IC50.
T1 construct: generate a full length human HSL ORF with a 3′-His6 tag; made in house; host or cells: High 5 insect cells (baculovirus, pFast-BAC)
T1 sequence (Q05469 1-1076): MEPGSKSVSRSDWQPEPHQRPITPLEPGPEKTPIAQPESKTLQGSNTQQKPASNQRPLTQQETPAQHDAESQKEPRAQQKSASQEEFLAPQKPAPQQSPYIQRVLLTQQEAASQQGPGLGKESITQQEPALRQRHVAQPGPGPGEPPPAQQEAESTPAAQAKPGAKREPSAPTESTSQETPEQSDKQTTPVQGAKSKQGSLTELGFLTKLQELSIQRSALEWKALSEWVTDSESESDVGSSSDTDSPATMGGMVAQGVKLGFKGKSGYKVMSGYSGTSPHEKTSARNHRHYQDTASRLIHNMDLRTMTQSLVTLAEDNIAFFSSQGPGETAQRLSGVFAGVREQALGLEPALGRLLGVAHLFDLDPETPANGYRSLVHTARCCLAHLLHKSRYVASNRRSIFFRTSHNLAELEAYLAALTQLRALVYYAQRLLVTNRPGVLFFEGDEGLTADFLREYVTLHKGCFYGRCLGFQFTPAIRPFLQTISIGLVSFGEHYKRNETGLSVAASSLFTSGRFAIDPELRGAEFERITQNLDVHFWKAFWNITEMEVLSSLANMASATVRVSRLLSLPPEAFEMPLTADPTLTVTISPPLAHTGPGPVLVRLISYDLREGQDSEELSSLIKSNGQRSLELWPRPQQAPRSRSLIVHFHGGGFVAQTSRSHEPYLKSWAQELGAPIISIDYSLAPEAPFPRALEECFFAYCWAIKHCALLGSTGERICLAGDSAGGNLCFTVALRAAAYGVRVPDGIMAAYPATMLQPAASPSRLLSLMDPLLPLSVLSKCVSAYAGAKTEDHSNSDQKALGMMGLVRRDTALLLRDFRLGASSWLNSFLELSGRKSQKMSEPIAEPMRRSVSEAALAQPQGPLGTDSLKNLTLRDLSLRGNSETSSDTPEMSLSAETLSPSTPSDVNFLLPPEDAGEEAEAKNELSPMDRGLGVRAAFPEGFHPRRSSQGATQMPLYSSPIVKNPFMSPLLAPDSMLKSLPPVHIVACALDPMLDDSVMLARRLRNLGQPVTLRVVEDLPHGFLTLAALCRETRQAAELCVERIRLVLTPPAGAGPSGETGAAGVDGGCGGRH
Assay type: biochemical
In short: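 Full-length human HSL with C-terminal His6, expressed in baculovirus-infected High 5 cells and Ni-NTA purified, was added (15 ug/ml stock) to 1.5 mM DMPT in 100 mM MOPS pH 7.2, 0.2 mg/ml fatty acid-free BSA containing compound. After 20 min at 37 °C, DTNB with SDS/Triton X-100 was added; A405 read after 15 min at RT.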

Row | SMILES | IC50 [nM]
1 | C[C@H](Oc1ccc(N2CC[C@]3(CC[C@](O)(COCC(F)(F)F)CC3)C2=O)cn1)C(F)(F)F [Example 280, (5α,8β)-8-Hydroxy-8-(2,2,2-trifluoro-ethoxymethyl)-2-[6-((S)-2,2,2-trifluoro-1-methyl-ethoxy)-pyridin-3-yl]-2-aza-spiro[4.5]decan-1-one] | 980
2 | CCCOC[C@]1(O)CC[C@]2(CCN(c3ccc(OCC(F)(F)F)nc3)C2=O)CC1 [Example 267, (5α,8α)-8-Hydroxy-8-propoxymethyl-2-[6-(2,2,2-trifluoro-ethoxy)-pyridin-3-yl]-2-aza-spiro[4.5]decan-1-one] | 30
3 | CCC[C@]1(O)CC[C@@]2(CCN(c3ccc(CC(F)(F)F)cc3)C2=O)CC1 [Example 82, (5α,8β)-8-Hydroxy-8-propyl-2-[4-(2,2,2-trifluoro-ethyl)-phenyl]-2-aza-spiro[4.5]decan-1-one] | 460
4 | CCCC[C@]1(O)CC[C@]2(CCN(c3ccc([C@@H](O)C(F)(F)F)cc3)C2=O)CC1 [Example 190, (5α,8α)-8-butyl-8-hydroxy-2-(4-((R)-2,2,2-trifluoro-1-hydroxyethyl)phenyl)-2-aza-spiro[4.5]decan-1-one] | 10
5 | O=C1N(c2ccc(OCCC(F)(F)F)cc2)CC[C@]12CC[C@@H](O)CC2 [Example 98, (5α,8β)-8-Hydroxy-2-[4-(3,3,3-trifluoro-propoxy)-phenyl]-2-aza-spiro[4.5]decan-1-one] | 2500
6 | Cc1cc(C[C@]2(O)CC[C@@]3(CCN(c4ccc(OC(C)C)cc4)C3=O)CC2)no1 [Example 221, (5α,8β)-8-hydroxy-2-(4-isopropoxyphenyl)-8-((5-methylisoxazol-3-yl)methyl)-2-aza-spiro[4.5]decan-1-one] | 1160
7 | COC[C@]1(O)CC[C@]2(CCN(c3ccc(OCC(F)(F)F)nc3)C2=O)CC1 [Example 110, (5α,8α)-8-Hydroxy-8-(methoxymethyl)-2-(6-(2,2,2-trifluoroethoxy)pyridin-3-yl)-2-aza-spiro[4.5]decan-1-one] | 190
8 | CCCSC[C@]1(O)CC[C@]2(CCN(c3ccc(OCC(F)(F)F)cc3)C2=O)CC1 [Example 294, (5α,8α)-8-Hydroxy-8-propylsulfanylmethyl-2-[4-(2,2,2-trifluoro-ethoxy)-phenyl]-2-aza-spiro[4.5]decan-1-one] | 20
9 | CCCCOC[C@]1(O)CC[C@]2(CCN(c3ccc(OCC(F)(F)F)cc3)C2=O)CC1 [Example 238, (5α,8α)-8-Butoxymethyl-8-hydroxy-2-[4-(2,2,2-trifluoro-ethoxy)-phenyl]-2-aza-spiro[4.5]decan-1-one] | 20
10 | CCc1ccc(CCN2CC[C@]3(CC[C@@](O)(C(C)C)CC3)C2=O)cc1 [Example 161, (5α,8α)-2-(4-Ethylphenethyl)-8-hydroxy-8-isopropyl-2-aza-spiro[4.5]decan-1-one] | 10
11 | COCCc1ccc(N2CC[C@]3(CC[C@@](O)(C(C)C)CC3)C2=O)cc1 [Example 128, (5α,8α)-8-Hydroxy-8-isopropyl-2-[4-(2-methoxy-ethyl)-phenyl]-2-aza-spiro[4.5]decan-1-one] | 50
12 | CCC[C@]1(O)CC[C@@]2(CCN(c3ccc(OCCC(F)(F)F)cc3)C2=O)CC1 [Example 100, (5α,8β)-8-Hydroxy-8-propyl-2-[4-(3,3,3-trifluoro-propoxy)-phenyl]-2-aza-spiro[4.5]decan-1-one] | 360
13 | CC(C)Oc1ccc(N2CC[C@]3(CC[C@@](O)(C4CC4)CC3)C2=O)cc1 [Example 197, (5α,8α)-8-cyclopropyl-8-hydroxy-2-(4-isopropoxyphenyl)-2-aza-spiro[4.5]decan-1-one] | 20
14 | O=C1N(c2ccc([C@@H](O)C(F)(F)F)cc2)CC[C@]12CC[C@@](O)(C1CCC1)CC2 [Example 200, (5α,8α)-8-cyclobutyl-8-hydroxy-2-(4-((R)-2,2,2-trifluoro-1-hydroxyethyl)phenyl)-2-aza-spiro[4.5]decan-1-one] | 20
15 | CC(C)[C@]1(O)CC[C@]2(CCN(c3ccc(OCC(F)(F)F)nc3)C2=O)CC1 [Example 108, (5α,8α)-8-Hydroxy-8-isopropyl-2-(6-(2,2,2-trifluoroethoxy)pyridin-3-yl)-2-aza-spiro[4.5]decan-1-one] | 20
16 | COC[C@]1(O)CC[C@]2(CCN(c3ccc(C4CC4)cc3)C2=O)CC1 [Example 223, (5α,8α)-2-(4-Cyclopropyl-phenyl)-8-hydroxy-8-methoxymethyl-2-aza-spiro[4.5]decan-1-one] | 50
17 | CC(C)[C@]1(O)CC[C@]2(CCN(c3ccc(O[C@H](C)C(F)(F)F)nc3)C2=O)CC1 [Example 150, (5α,8α)-8-Hydroxy-8-isopropyl-2-[6-((R)-2,2,2-trifluoro-1-methyl-ethoxy)-pyridin-3-yl]-2-aza-spiro[4.5]decan-1-one] | 20
18 | CCc1ccc(N2CC[C@]3(CC[C@H](OC(=O)NCc4cccc(F)c4)CC3)C2=O)cc1 [Example 45, (3-Fluoro-benzyl)-carbamic acid [(5α,8α)-2-(4-ethyl-phenyl)-1-oxo-2-aza-spiro[4.5]dec-8-yl]ester] | 1110
19 | C[C@H](Oc1ccc(N2CC[C@]3(CC[C@](O)(COCC(F)F)CC3)C2=O)cc1)C(F)(F)F [Example 298, (5α,8β)-8-(2,2-Difluoro-ethoxymethyl)-8-hydroxy-2-[4-((S)-2,2,2-trifluoro-1-methyl-ethoxy)-phenyl]-2-aza-spiro[4.5]decan-1-one] | 590
20 | COc1ccc(N2CC[C@]3(CC[C@@H](OCc4ccccc4)CC3)C2=O)cc1 [Example 3, (5α,8β)-8-Benzyloxy-2-(4-methoxy-phenyl)-2-aza-spiro[4.5]decan-1-one] | 610
21 | CC(C)Oc1ccc(N2CC[C@]3(CC[C@@](O)(C4CCCC4)CC3)C2=O)cc1 [Example 198, (5α,8α)-8-cyclopentyl-8-hydroxy-2-(4-isopropoxyphenyl)-2-aza-spiro[4.5]decan-1-one] | 10
22 | CC(C)[C@]1(O)CC[C@]2(CCN(c3ccc(OC(F)(F)F)cc3)C2=O)CC1 [Example 68, (5α,8α)-8-Hydroxy-8-isopropyl-2-(4-trifluoromethoxy-phenyl)-2-aza-spiro[4.5]decan-1-one] | 30
23 | O=C1N(c2ccc3c(c2)OC(F)(F)O3)CC[C@]12CC[C@@](O)(C(F)(F)F)CC2 [Example 336, (5α,8α)-2-(2,2-Difluoro-benzo[1,3]dioxol-5-yl)-8-hydroxy-8-trifluoromethyl-2-aza-spiro[4.5]decan-1-one] | 210
24 | CC(C)[C@]1(O)CC[C@]2(CCN(c3ccc(OCC(F)(F)F)cc3)C2=O)CC1 [Example 103, (5α,8α)-8-Hydroxy-8-isopropyl-2-[4-(2,2,2-trifluoro-ethoxy)-phenyl]-2-aza-spiro[4.5]decan-1-one] | 20
25 | C[C@H](Oc1ccc(N2CC[C@]3(CC[C@@](O)(COCC(F)(F)F)CC3)C2=O)cn1)C(F)(F)F [Example 281, (5α,8α)-8-Hydroxy-8-(2,2,2-trifluoro-ethoxymethyl)-2-[6-((S)-2,2,2-trifluoro-1-methyl-ethoxy)-pyridin-3-yl]-2-aza-spiro[4.5]decan-1-one] | 10
26 | O=C1N(c2ccc(OC(F)(F)F)cc2)CC[C@]12CC=CCC2 [Example 50, 2-(4-Trifluoromethoxy-phenyl)-2-aza-spiro[4.5]dec-7-en-1-one] | 200

Source: US8440710B2, “HSL inhibitors useful in the treatment of diabetes” (Hoffmann-La Roche Inc., priority 2009, dated 2013)
